{
  "source": "patent US20160067211A1",
  "about": "“PHARMACEUTICAL COMPOSITION” (Eberhard Karls Universitaet Tuebingen Medizinische Fakultaet, priority 2013, published 2016)",
  "key": {"BLM melanoma cells [1]": {"tested_on": "BLM melanoma cells", "experiment": "Real time cell monitoring assay (xCELLigence), BLM", "assay_type": "cell-based, human", "conditions": "BLM, 20, 50 and 100 μM, 104 hours, vs. control", "protocol": "FIG. 5: real time cell monitoring of BLM and SK-MEL-28 melanoma cells treated with 6-PN and 8-PN. (A) BML and SK-MEL-28 cells were treated 24 hours after seeding with different concentrations of 6-PN and 8-PN (20 μM, 50 μM and 100 μM) over a 104 hour time period. The cellular impedance was measured over the entire observation time using the xCELLigence™ SP system and is depicted by the cell index (CI). All CI-values were normalized shortly before the treatment started. […] As a positive control, Triton X-100 0.1% was used to induce cell death. Shown are the mean±SD of three independent experiments, each performed in triplicates (B, C). […]\nThe human melanoma cell lines BLM and SK-MEL-28 (2.5×10^3 cells/well) were seeded in 96 well plates. The cells were treated after 24 hours with different concentrations of 6-PN or 8-PN (20 μM, 50 μM and 100 μM) and monitored by measurements of electrical impedance in 15 minutes intervals for an overall time span of in total 104 hours using the xCELLigencer® SP Systems (Roche Applied Science). The cell index values were calculated using the RTCA software (1.0.0.0805). […]\nThe human metastatic melanoma cell lines BLM and SK-MEL-28 were treated once with rising concentrations of 6-PN or 8-PN (20 μM, 50 μM and 100 μM) and monitored continuously for an overall time span of 104 hours using a real time monitoring assay (FIG. 5A). […]"}, "[2]": {"tested_on": "LC3 in BLM melanoma cells", "experiment": "Western blot LC3 (autophagy), BLM", "assay_type": "cell-based, human", "conditions": "100 μM, after 12-24 hours", "protocol": "(A) Cell cycle FACS analyses of PI stained BLM and SK-MEL-28 melanoma cells. 100 μM of 8-PN-induced a G2 arrest in both cells. (B) FACS analyses of BLM and SK-MEL-28 melanoma cells treated with 100 μM 6-PN or 8-PN and stained for annexin V/PI; staurosporin was used as control for apoptosis induction and DMSO as vehicle control. […] (C) BLM and SK-MEL-28 melanoma cells were treated with 100 μM of PNs; TSA, SAHA and EMSO were used as controls.\nThe following antibodies were used: Anti-Vinculin and Anti-Actin (1:5000, Sigma-Aldrich), Anti-Acetyl-Histon H3 (1:5000, Millipore, Billerica, USA), Anti-Caspase-3 (1:1000), Anti-AKT, Anti-pAKT, Anti-ERK, Anti-pERK, […], Anti-p70S6 Kinase, and Anti-pS6 protein (1:1000), all from Cell Signaling, Frankfurt, Germany), Anti-LC3 (1:5000, Sigma-Aldrich).\nSince it has been speculated that the formation of intracytoplasmic vacuoles in pancreatic or breast cancer cells by 6-PN and 8-PN observed in pervious studies might represent an induction of autophagy, this issue was further investigated on a molecular level. BLM and SK-MEL-28 melanoma cells were treated with 100 μM of 6-PN, 8-PN, SAHA or TSA (and with DMSO as control), and the treated cells were lysed for protein extraction after 1 hour, 2 hours, 4 hours, 12 hours and 24 hours. […]"}, "BLM melanoma cells [3]": {"tested_on": "BLM melanoma cells", "experiment": "Organotypic human epidermal skin reconstructs, BLM", "assay_type": "cell-based", "conditions": "100 μM, 40× magnification", "protocol": "(§1) FIG. 11: 6-PN and 8-PN reduce proliferation and invasion of BLM and LOXIMVI melanoma cells in human epidermal skin reconstructs and induce little embryo toxicity. (A) BLM melanoma cells and keratinocytes were seeded on top of a collagen matrix populated by fibroblasts. After 16 days a keratinizing stratified epithelium with a rudimentary corium is formed. […] (B) Similar results were obtained for LOXIMVI melanoma cells under the same treatment conditions. Only nests of dead, MIB1 negative LOXIMVI cells were detected after treatment with the PNs. […]\n(§2) In this assay, keratinocytes and melanoma cells are seeded on top of a collagen matrix populated by fibroblasts. […] Untreated control BLM cells (depicting 70-80% proliferation, determined by MIB1 immunhistochemistry) had formed a large tumor in the epidermal part of the reconstruct and had invaded the corium (FIG. 11A, upper panel). To determine the amount of proliferating cells, the number of MIB1 positive melanoma cells per power field in the epidermal part of the reconstruct at the epidermal-dermal border was counted (40× magnification, n=5 adjacent fields examined). Further, the number of melanoma cells invading the dermal part of the reconstruct was counted in the same high power fields. In reconstructs with untreated BLM cells, 103±15 MIB1 positive cells and 39±13 invasive cells were counted (FIG. 11A, upper panel). […]"}, "LOXIMVI melanoma cells": {"tested_on": "LOXIMVI melanoma cells", "experiment": "Organotypic human epidermal skin reconstructs, LOXIMVI", "assay_type": "cell-based", "conditions": "same treatment conditions (100 μM), untreated 100% MIB1 positive", "protocol": "as §1, §2"}, "[4]": {"tested_on": "all tested cancer cells (Tab. 1)", "experiment": "Proliferation of all tested tumor cell lines (Table 1)", "assay_type": "cell-based", "conditions": "19 tumor cell lines of Tab. 1", "text": "The inventors have tested 19 different tumor cell lines in total, including five melanoma cell lines, two liver cancer cell lines, three breast cancer cell lines, three colon cancer cell lines, two prostate cancer cell lines, two lung cancer cell lines and to renal cancer cell lines."}},
  "data": [
    {"smiles": "CC(C)=CCc1c(O)cc(O)c2c1OC(c1ccc(O)cc1)CC2=O", "note": "(stereo not drawn) [8-PN, 5,7-Dihydroxy-2-(4-hydroxy-phenyl)-8-(3-methyl-but-2-enyl)-chroman-4-one]", "values": [
      {"measurement": "normalized cell index (CI)", "setting": "BLM melanoma cells [1]", "result": "descended over time"},
      {"measurement": "shift from LC3-I to LC3-II (autophagy)", "setting": "[2]", "result": "clearly induced the shift"},
      {"measurement": "invasive cells per high power field", "setting": "BLM melanoma cells [3]; untreated 39±13", "result": "6±2"},
      {"measurement": "MIB1 positive cells per high power field", "setting": "BLM melanoma cells [3]; untreated 103±15", "result": "16±4"},
      {"measurement": "cell proliferation of LOXIMVI cells (MIB1)", "setting": "LOXIMVI melanoma cells", "result": "completely inhibited"},
      {"measurement": "cell proliferation in all tested cancer cells", "setting": "[4]", "result": "effectively reduce cell proliferation"}
    ]}
  ]
}
